Test results as given in article PMC5290737, “Surface mediated cooperative interactions of drugs enhance mechanical forces for antibiotic action” (Scientific Reports, 2017).
≈ marks a conversion by molar mass, not a printed value. Read-outs that look alike come from different tables or passages of the source.

Key:
[1] = test system: vancomycin-susceptible receptor (VSR); assay: Cantilever surface stress assay, antibiotic binding to surface-bound VSR; conditions: for mechanical response (in words): 3 μM drug against VSR; for Kd: VSR on cantilever, fit of equation (2); for maximum stress data, Mean / Mean difference of stress, VSR versus VRR: 4 chips; for maximum stress data, Mean: one-way ANOVA table S5; for mechanical force (F = kΔz): against VSR on the cantilever, Fig. 6b (10 μM); for Mean difference of stress, VSR versus VRR: independent samples t-test, table S6; for mechanical response, free end deflection: Van 1000 μM against VSR
Source text: (§1) To probe different pathways of signal-transduction central to the efficacy of recognition mechanisms and therapeutic agents, we used cantilever force-based technology. Because of its nanometre strain sensitivity, this technology can directly measure the smallest changes in mechanical strain caused by specific antibiotic binding. The principles of force transduction and measurements are well established[18][19][20] and many studies focused on cantilever sensors have been published. Unlike conventional methods such as 1H–NMR spectroscopy, enzyme-linked immunosorbent assays (ELISA)[29] or surface plasmon resonance (SPR)[30] which measure optical signatures of chemical binding, cantilever technology has the capacity to resolve forces at the level of individual hydrogen bonds, making it uniquely suited to provide important insight into force transduction mechanisms, such as cell wall strain in response to antibiotic binding. Moreover, in contrast to direct current or low-frequency signals, which cannot probe beyond electrical double layers formed by screening salts, mechanical signaling is sensitive to ligands even when they are located at distance of ~1 nm or more from the sensor surface (Fig. 1d). Measurements were performed using cantilevers functionalized with self-assembled monolayers (SAM) of VSR, VRR or reference polyethylene glycol (PEG) (see methods & materials, Supplementary Information). The specificity of mechanical signaling was achieved by performing measurements in differential mode, where the bending response of the reference PEG-coated cantilevers, (known to reduce nonspecific drug adsorption[8][14][34]) was subtracted from VSR- and VRR-coated cantilever signals (see cantilever measurement procedure, method section).
(§2) Thus far, we have discussed the impact of near-membrane layer on the association kinetics, mechanical force transduction, specificity of molecular recognition and microbial susceptibility. To gain mechanistic insight (Fig. 7a,b), we averaged measurements for each drug-target interaction over four separate chips and the results are summarized in Fig. 7c,d. […] The mechanical signaling response follows an s-shaped curve undergoing its steepest rise at N ~1/Ksurf before reaching a plateau when the binding sites are fully occupied (Fig. 7c,d). To calculate Ksurf, we used equation (2)[14], based on the conventional Hill adsorption model.
(§3) Here, Ksurf is raised to the power n to ensure that it maintains the dimension of concentration as n varies. Setting n = 1 yields the Langmuir isotherm where the reactions occur independently, while n > 1 corresponds to positive co-operative polyvalent interactions and n < 1 is a measure of negative co-operativity. In Fig. 7c,d, we find that the mechanical response at VSR levels off at 50 μM concentration for all antibiotics. In contrast, for the drug-resistant VRR a concentration of more than 1000 μM of Van, Rist or CE was required to reach indistinguishable maximum signals. The outcome of the fit using three parameters (n, Ksurf and σmax) is summarized in Supplementary Fig. 2. The calculated Ksurf for Ori binding to VSR is 40 ± 10 nM, which is 25 times stronger than for Van where Ksurf is 1.0 ± 0.3 μM. The Ksurf of Ori against VRR is 70 ± 10 nM, an astonishing 11,000 times stronger than for Van where Ksurf is 800 ± 300 μM. As a further measurement control and to confirm the accuracy of surface binding affinity, we used a commercially available SPR method (Fig. 7e,f and Supplementary SPR sensor chip functionalization procedure), where the detection of ligands is at a single planar metal surface.
(§4) The modified cantilever chip was mounted in a sealed liquid cell. The alignment of each light source onto the free end of each cantilever was confirmed by heating liquid chamber to 1 °C rise. […]

[2] = test system: methicillin-resistant Staphylococcus aureus (MRSA); conditions: absence of polysorbate-80; supplementary references; cited from earlier work
[3] = target: VRR in solution; conditions: ref. 1 (Van), ref. 6 (Rist), ref. 8 (CE), ref. 2 (Ori), supplementary references, read-out: Ksurf Solution; cited from earlier work
[4] = test system: vancomycin resistant E. faecalis (VRE); conditions: absence of polysorbate-80; ref. 2 (Van), ref. 5 (Rist, CE), ref. 9 (Ori), supplementary references; cited from earlier work
[5] = test system: vancomycin-resistant receptor (VRR); assay: Cantilever surface stress assay, antibiotic binding to surface-bound VRR; conditions: for mechanical response (in words): 3 μM drug against VRR; for compressive surface stress: 10 μM antibiotic against VRR; for Kd: fit of equation (2); for maximum stress data, Mean: 4 chips, one-way ANOVA table S4
Source text: as §1, §2, §3, §4

[6] = ligand-ligand dissociation constant in solution; ref. 2 (Van, CE, Ori), ref. 5 (Rist), supplementary references; read-out: K1 Solution (complex aggregation constant); cited from earlier work
[7] = test system: vancomycin susceptible E. faecalis (VSE); conditions: absence of polysorbate-80; ref. 9 (Van, CE, Ori), ref. 10 (Rist), supplementary references; cited from earlier work
[8] = test system: membrane bound VRR (competitor Ac-VSR); assay: Competitive inhibition of drug-VRR cantilever response by Ac-VSR in solution; format: binding; conditions: for IC50: Van 50 μM or Ori 0.1 μM against VRR cantilever, fit of equation (1), read-out: IC50 (concentration of antagonist Ac-VSR giving 50% inhibition of drug-receptor interactions at the surface); for Ac-VSR concentration required to inhibit the mechanical response: Van 50 μM, Ori 0.1 μM against VRR
Method: In the first set of experiments, we assessed whether the 2-D boundary layer could mediate more efficient complex aggregation of antibiotics and thus lead to enhanced signal transduction compared to a 3-D solution. To achieve this, diacetyl vancomycin susceptible receptor (or Ac-VSR)[14] was added to the solution containing Van or Ori in order to act as a competitor against membrane bound VRR. […] The concentrations of Van and Ori in solution were kept constant at 50 μM and 0.1 μM respectively. These particular concentrations were chosen because (1) they give rise to relatively large mechanical bending signals, (2) they fall within the linear portions of the Langmuir adsorption isotherms, and (3) they require relatively low levels of Ac-VSR to inhibit the mechanical response at the surface. We therefore reasoned that if the interaction between a drug and Ac-VSR is independent of any surface effects then the amount of Ac-VSR which inhibits the mechanical response at a surface is expected to be the same for both Van and Ori. The concentration of antagonist (Ac-VSR) that gives rise to 50% inhibition (IC50) of drug-receptor interactions at the surface was used as measure of membrane effects on the association kinetics and mechanical response. […] To calculate the IC50, we analyzed the data using equation (1), whose detailed derivation has been reported previously.
Here σeq is the equilibrium mechanical stress, σligand1 is the mechanical stress generated by ligand1 in the absence of a competing ligand2, σligand2 is the corresponding minimum stress generated by ligand1 in the presence of a large excess of the concentration of competing ligand2. […] The IC50 for Ori is 3-fold larger than that of Van.

[9] = pH 7.4 sodium phosphate buffer, read-out: Ksurf Cantilever (surface equilibrium dissociation constant)
[10] = VRR on cantilever, pH 7.4 sodium phosphate buffer, read-out: Ksurf Cantilever (surface equilibrium dissociation constant)

| Structure (SMILES) | mechanical response (in words) [1] | Kd [1, 9] [µM] | maximum stress data, Mean ([1]; VSR) | mechanical force (F = kΔz) [1] | Mean difference of stress, VSR versus VRR [1] | MIC MRSA [2] [µg/mL] | Kd [3] [µM] | MIC VRE [4] [µg/mL] | mechanical response (in words) [5] | compressive surface stress [5] | Kd [5, 10] [µM] | maximum stress data, Mean ([5]; VRR) | Kd [6] [µM] | MIC VSE [7] [µg/mL] | IC50 [8] [µM] | Ac-VSR concentration required to inhibit the mechanical response [8] | also measured |
| --- | --- | --- | --- | --- | --- | --- | --- | --- | --- | --- | --- | --- | --- | --- | --- | --- | --- |
| CN[C@H](CC(C)C)C(=O)N[C@H]1C(=O)N[C@@H](CC(N)=O)C(=O)N[C@H]2C(=O)N[C@H]3C(=O)N[C@H](C(=O)N[C@H](C(=O)O)c4cc(O)cc(O)c4-c4cc3ccc4O)[C@H](O[C@H]3C[C@](C)(N)[C@@H](O)[C@H](C)O3)c3ccc(c(Cl)c3)Oc3cc2cc(c3O[C@@H]2O[C@H](CO)[C@@H](O)[C@H](O)[C@H]2O[C@H]2C[C@](C)(NCc3ccc(-c4ccc(Cl)cc4)cc3)[C@@H](O)[C@H](C)O2)Oc2ccc(cc2Cl)[C@H]1O [Ori, oritavancin] | significantly large mechanical response | 0.04 ± 0.01 | 33.8 | ~ 3.6 nN | 13.2 | 0.13 to 1.01 | 4200 | 0.25 to 2 | significantly large mechanical response | ~ 23 mNm^−1 | 0.07 ± 0.01 | 20.6 | 1.6 | 0.25 to 2 | 50.7 ± 2.1 | more than 500 μM | Kd ([1]; read-out: Ksurf (cantilever)): 0.04 ± 0.01 µM; Ksurf of Ori against VSR, times stronger than for Van ([1]; ratio of cantilever Ksurf, VSR): 25 times; Kd ([5]; VRR (drug-resistant target) on cantilever, read-out: Ksurf (cantilever)): 0.07 µM; Ksurf of Ori against VRR, times stronger than for Van ([5]; ratio of cantilever Ksurf, VRR): 11,000 times; deleterious force sensitivity s = σeq/n ([5]; σeq = 23 mNm^−1, n ~10^11 receptor molecules per cantilever): ~ 20 fNm^−1; IC50 for Ori relative to Van ([8]; Ac-VSR competition against VRR): 3 fold |
| CN[C@H](CC(C)C)C(=O)N[C@H]1C(=O)N[C@@H](CC(N)=O)C(=O)N[C@H]2C(=O)N[C@H]3C(=O)N[C@H](C(=O)N[C@H](C(=O)O)c4cc(O)cc(O)c4-c4cc3ccc4O)[C@H](O)c3ccc(c(Cl)c3)Oc3cc2cc(c3O[C@@H]2O[C@H](CO)[C@@H](O)[C@H](O)[C@H]2O[C@H]2C[C@](C)(N)[C@H](O)[C@H](C)O2)Oc2ccc(cc2Cl)[C@H]1O [Van, vancomycin] | reduced overall stress transduction | 1 ± 0.3 | 33.5 | ~ 3 nN | 26.1 | 0.5 to 4 | 2400 | 512 (≈ 353 µM) | no effect | ~ 0.4 mNm^−1 | 800 | 7.4 | 20000 | 0.5 to 4 | 15.4 ± 0.2 | 500 µM | mechanical response, free end deflection ([1]; near-membrane layer thickness ~1 nm): ~ 220 nm; mechanical response, free end deflection ([1]; near-membrane layer thickness ~50 nm): ~ 150 nm; concentration required to reach indistinguishable maximum signals ([5]; VRR): more than 1000 μM |
